This assay has as its system HBV. Nature of the assay: HBV inhibition assay in HepAD38 cells (extracellular HBV DNA by direct qPCR). The format is cell-based, Hepatitis B virus. Background: Real-time PCR tracks product formation cycle by cycle.
Where [1] appears, read: Hepatitis B virus, 96 hours, relative to non-treated reference, read-out: Anti HBV Activity (conc μM).
Setting [2] is: Hepatitis B virus, 96 hours, 8-point dose-response curve, read-out: HBV inh EC50.

Like-named read-outs stand apart in the source and are kept apart here.

Broadly, the EC50 is the midpoint of the concentration-response curve.

As for `CN1CC2COc3c(cn(C)c3C(=O)Nc3cc(F)c(F)c(F)c3)S(=O)(=O)NC2C1` (racemic) [Example E12, cis-2,7-dimethyl-N-(3,4,5-trifluorophenyl)-2,3,3a,4,10,10a-hexahydro-1H,7H-dipyrrolo[3,4-b:3′,4′-f][1,4,5]oxathiazocine-8-carboxamide 5,5-dioxide], the inhibition at 0.1 µM under setting [1] was greater than 50%. Under setting [2], the EC50 is less than 1000 nM.

Consider `CCOC(=O)N1CC2COc3c(cn(C)c3C(=O)Nc3ccc(F)c(F)c3)S(=O)(=O)NC2C1` (racemic) [Example E13, Cis-Ethyl 8-((3,4-difluorophenyl)carbamoyl)-7-methyl-3a,4,10,10a-tetrahydro-1H,7H-dipyrrolo[3,4-b:3′,4′-f][1,4,5]oxathiazocine-2(3H)-carboxylate 5,5-dioxide], for which, under setting [1], the inhibition at 0.1 µM is greater than 50%. Also, the EC50 under setting [2] was less than 1000 nM.

For the molecule `CCOC(=O)N1CC2COc3c(cn(C)c3C(=O)Nc3ccc(F)c(C)c3)S(=O)(=O)NC2C1` (racemic) [Example E14, Cis-Ethyl 8-((4-fluoro-3-methylphenyl)carbamoyl)-7-methyl-3a,4,10,10a-tetrahydro-1H,7H-dipyrrolo[3,4-b:3′,4′-f][1,4,5]oxathiazocine-2(3H)-carboxylate 5,5-dioxide], under setting [1], the inhibition at 0.1 µM is greater than 50%. Moreover, the EC50 under setting [2] was less than 1000 nM.

For `CCOC(=O)N1CC2COc3c(cn(C)c3C(=O)Nc3ccc(F)c(Cl)c3)S(=O)(=O)NC2C1` (racemic) [Example E15, Cis-Ethyl 8-((3-chloro-4-fluorophenyl)carbamoyl)-7-methyl-3a,4,10,10a-tetrahydro-1H,7H-dipyrrolo[3,4-b:3′,4′-f][1,4,5]oxathiazocine-2(3H)-carboxylate 5,5-dioxide], the inhibition at 0.1 µM under setting [1] is greater than 50%. In addition, the concentration for a half-maximal effect (EC50) under setting [2] is less than 1000 nM.

As to `CCOC(=O)N1CC2COc3c(cn(C)c3C(=O)Nc3ccc(F)c(C(F)F)c3)S(=O)(=O)NC2C1` (racemic) [Example E16, Cis-Ethyl 8-((3-(difluoromethyl)-4-fluorophenyl)carbamoyl)-7-methyl-3a,4,10,10a-tetrahydro-1H,7H-dipyrrolo[3,4-b:3′,4′-f][1,4,5]oxathiazocine-2(3H)-carboxylate 5,5-dioxide], the inhibition at 0.1 µM under setting [1] was greater than 50%. Besides, the EC50 under setting [2] is less than 1000 nM.

As for `CCOC(=O)N1CC2COc3c(cn(C)c3C(=O)Nc3ccc(F)c(C#N)c3)S(=O)(=O)NC2C1` (racemic) [Example E17, Cis-Ethyl 8-((3-cyano-4-fluorophenyl)carbamoyl)-7-methyl-3a,4,10,10a-tetrahydro-1H,7H-dipyrrolo[3,4-b:3′,4′-f][1,4,5]oxathiazocine-2(3H)-carboxylate 5,5-dioxide], the inhibition at 0.1 µM under setting [1] was greater than 50%. In addition, under setting [2], the EC50 is less than 1000 nM.

Turning to `CC(C)S(=O)(=O)N1CC2COc3c(cn(C)c3C(=O)Nc3cc(F)c(F)c(F)c3)S(=O)(=O)NC2C1` (racemic) [Example E18, cis-2-(isopropylsulfonyl)-7-methyl-N-(3,4,5-trifluorophenyl)-2,3,3a,4,10,10a-hexahydro-1H,7H-dipyrrolo[3,4-b:3′,4′-f][1,4,5]oxathiazocine-8-carboxamide 5,5-dioxide], under setting [1], the inhibition at 0.1 µM is greater than 50%. For the same molecule, the EC50 under setting [2] was less than 1000 nM.

With `Cn1cc2c(c1C(=O)Nc1cc(F)c(F)c(F)c1)OCC1CN(S(C)(=O)=O)CC1NS2(=O)=O` (racemic) [Example E19, cis-7-methyl-2-(methylsulfonyl)-N-(3,4,5-trifluorophenyl)-2,3,3a,4,10,10a-hexahydro-1H,7H-dipyrrolo[3,4-b:3′,4′-f][1,4,5]oxathiazocine-8-carboxamide 5,5-dioxide], the inhibition at 0.1 µM under setting [1] was greater than 50%. Further, the EC50 under setting [2] is less than 1000 nM.

As to `Cn1cc2c(c1C(=O)Nc1cc(F)c(F)c(F)c1)OCC1CN(S(=O)(=O)C3CC3)CC1NS2(=O)=O` (racemic) [Example E20, cis-2-(cyclopropylsulfonyl)-7-methyl-N-(3,4,5-trifluorophenyl)-2,3,3a,4,10,10a-hexahydro-1H,7H-dipyrrolo[3,4-b:3′,4′-f][1,4,5]oxathiazocine-8-carboxamide 5,5-dioxide], the inhibition at 0.1 µM under setting [1] was greater than 50%. Also, the 50% effective concentration (EC50) under setting [2] is less than 1000 nM.

As to `CC(C)NS(=O)(=O)N1CC2COc3c(cn(C)c3C(=O)Nc3cc(F)c(F)c(F)c3)S(=O)(=O)NC2C1` (racemic) [Example E21, cis-2-(N-isopropylsulfamoyl)-7-methyl-N-(3,4,5-trifluorophenyl)-2,3,3a,4,10,10a-hexahydro-1H,7H-dipyrrolo[3,4-b:3′,4′-f][1,4,5]oxathiazocine-8-carboxamide 5,5-dioxide], the inhibition at 0.1 µM under setting [1] is greater than 50%. Further, under setting [2], the EC50 was less than 1000 nM.

Regarding `Cn1cc2c(c1C(=O)Nc1cc(F)c(F)c(F)c1)OCC1CN(C(=O)OC3CO[C@H]4OCC[C@@H]34)CC1NS2(=O)=O` (mixture of isomers) [Example E22, cis-(3R,3aS,6aR)-hexahydrofuro[2,3-b]furan-3-yl 7-methyl-8-((3,4,5-trifluorophenyl)carbamoyl)-3a,4,10,10a-tetrahydro-1H,7H-dipyrrolo[3,4-b:3′,4′-f][1,4,5]oxathiazocine-2(3H)-carboxylate 5,5-dioxide], the inhibition at 0.1 µM under setting [1] was greater than 50%. The EC50 under setting [2] is less than 1000 nM.

Consider `CNC(=O)N1CC2COc3c(cn(C)c3C(=O)Nc3cc(F)c(F)c(F)c3)S(=O)(=O)NC2C1` (racemic) [Example E23, (3aR,10aR) and (3aS,10aS)—N^2,7-dimethyl-N^8-(3,4,5-trifluorophenyl)-3a,4,10,10a-tetrahydro-1H,7H-dipyrrolo[3,4-b:3′,4′-f][1,4,5]oxathiazocine-2,8(3H)-dicarboxamide 5,5-dioxide], for which, under setting [1], the inhibition at 0.1 µM was greater than 50%. For the same molecule, the EC50 under setting [2] was less than 1000 nM.

Regarding `Cn1cc2c(c1C(=O)Nc1cc(F)c(F)c(F)c1)OCC1CN(C(=O)OC(C)(C)C)CC1NS2(=O)=O` (racemic) [Example E24, Tert-Butyl (3aS,10aS and 3aR,10aR) 7-methyl-8-((3,4,5-trifluorophenyl)carbamoyl)-3a,4,10,10a-tetrahydro-1H,7H-dipyrrolo[3,4-b:3′,4′-f][1,4,5]oxathiazocine-2(3H)-carboxylate 5,5-dioxide], under setting [1], the inhibition at 0.1 µM is greater than 50%.

Regarding `Cn1cc2c(c1C(=O)Nc1cc(F)c(F)c(F)c1)OCC1CCCC1NS2(=O)=O` (racemic) [Example E28, cis (5aR,8aS and 5aS,8aR)-2-methyl-N-(3,4,5-trifluorophenyl)-5a,6,7,8,8a,9-hexahydro-2H,5H-cyclopenta[f]pyrrolo[3,4-b][1,4,5]oxathiazocine-1-carboxamide 4,4-dioxide], the inhibition at 0.1 µM under setting [1] is greater than 50%. Also, the concentration for a half-maximal effect (EC50) under setting [2] was less than 1000 nM.

Consider `Cn1cc2c(c1C(=O)Nc1ccc(F)c(F)c1)OC[C@@]1(O)CCC[C@H]1NS2(=O)=O` (racemic) [Example E30, cis-N-(3,4-difluorophenyl)-8a-hydroxy-2-methyl-5a,6,7,8,8a,9-hexahydro-2H,5H-cyclopenta[f]pyrrolo[3,4-b][1,4,5]oxathiazocine-1-carboxamide 4,4-dioxide], for which the inhibition at 0.5 µM (Hepatitis B virus, 0.5 μM, 96 hours, relative to non-treated reference, read-out: Anti HBV Activity (conc μM)) was less than 50%.

Regarding `Cc1nnc(C(=O)N2CCC3NS(=O)(=O)c4cn(C)c(C(=O)Nc5ccc(F)c(C)c5)c4OCC3C2)o1` (racemic) [Example E125, Cis-N-(4-fluoro-3-methylphenyl)-2-methyl-8-(5-methyl-1,3,4-oxadiazole-2-carbonyl)-5,5a,6,7,8,9,9a,10-octahydro-2H-pyrido[4,3-f]pyrrolo[3,4-b][1,4,5]oxathiazocine-1-carboxamide 4,4-dioxide], under setting [2], the EC50 was less than 1000 nM.

With `Cc1cc(NC(=O)c2c3c(cn2C)S(=O)(=O)NC2CCN(C(=O)C4(C)COC4)CC2CO3)ccc1F` (racemic) [Example E126, Cis-N-(4-fluoro-3-methylphenyl)-2-methyl-8-(3-methyloxetane-3-carbonyl)-5,5a,6,7,8,9,9a,10-octahydro-2H-pyrido[4,3-f]pyrrolo[3,4-b][1,4,5]oxathiazocine-1-carboxamide 4,4-dioxide], the EC50 under setting [2] was less than 1000 nM.

On to `Cc1cc(NC(=O)c2c3c(cn2C)S(=O)(=O)NC2CCN(C(=O)C4(C)CCCO4)CC2CO3)ccc1F` (racemic) [Example E127, Cis-N-(4-fluoro-3-methylphenyl)-2-methyl-8-(2-methyltetrahydrofuran-2-carbonyl)-5,5a,6,7,8,9,9a,10-octahydro-2H-pyrido[4,3-f]pyrrolo[3,4-b][1,4,5]oxathiazocine-1-carboxamide 4,4-dioxide], for which the concentration for a half-maximal effect (EC50) under setting [2] was less than 1000 nM.

`Cc1cc(NC(=O)c2c3c(cn2C)S(=O)(=O)NC2CCN(C(=O)C45CC(CO4)C5)CC2CO3)ccc1F` (racemic) [Example E128, Cis-8-(2-oxabicyclo[2.1.1]hexane-1-carbonyl)-N-(4-fluoro-3-methylphenyl)-2-methyl-5,5a,6,7,8,9,9a,10-octahydro-2H-pyrido[4,3-f]pyrrolo[3,4-b][1,4,5]oxathiazocine-1-carboxamide 4,4-dioxide]: the EC50 under setting [2] was less than 1000 nM.

As to `Cc1cc(NC(=O)c2c3c(cn2C)S(=O)(=O)NC2CCN(C(=O)c4ncoc4C)CC2CO3)ccc1F` (racemic) [Example E129, Cis-N-(4-fluoro-3-methylphenyl)-2-methyl-8-(5-methyloxazole-4-carbonyl)-5,5a,6,7,8,9,9a,10-octahydro-2H-pyrido[4,3-f]pyrrolo[3,4-b][1,4,5]oxathiazocine-1-carboxamide 4,4-dioxide], for the setting “read-out: HBV inh EC50, 96 hours, 8-point dose-response curve”, the EC50 was less than 1000 nM.

With `Cc1nnc(C(=O)N2CCC3NS(=O)(=O)c4cn(C)c(C(=O)Nc5ccc(F)c(C)c5)c4OCC3C2)o1` (racemic) [Example E130, Trans-N-(4-fluoro-3-methylphenyl)-2-methyl-8-(5-methyl-1,3,4-oxadiazole-2-carbonyl)-5,5a,6,7,8,9,9a,10-octahydro-2H-pyrido[4,3-f]pyrrolo[3,4-b][1,4,5]oxathiazocine-1-carboxamide 4,4-dioxide], the half-maximal effective concentration (EC50) (96 hours, 8-point dose-response curve, read-out: HBV inh EC50) is less than 1000 nM.
